{"source": "paper PMC2953793", "about": "(Cancer chemotherapy and pharmacology, 2009)", "key": {"[1]": {"test_system": "PARP", "conditions": "cited from earlier work"}, "[2]": {"conditions": "CD-1 mice; cited from earlier work"}, "[3]": {"test_system": "PARP"}, "[4]": {"test_system": "PARP", "conditions": "phase 0 study, National Cancer Institute; single oral dose of 25 or 50 mg; cited from earlier work"}, "[5]": {"test_system": "human colon cancer and lung cancer xenograft models", "conditions": "human colon cancer (ref 12) and lung cancer xenograft models (ref 1); cited from earlier work"}, "[6]": {"conditions": "individual animals, single 5 mg/kg dose, 5 mg/kg"}, "[7]": {"conditions": "individual animals, single 5 mg/kg dose, model parameter, 5 mg/kg"}, "[8]": {"conditions": "mean of three animals, single 5 mg/kg dose, model parameter"}}, "note": "Where “and” joins values, the source holds several entries; their conditions need not be identical. Equal values may be shown once. Read-outs that look alike come from different tables or passages of the source."}
{"molecule": "C[C@]1(c2nc3c(C(N)=O)cccc3[nH]2)CCCN1", "note": "[ABT-888]", "values": [{"measurement": "concentrations required for ex vivo PARP inhibition in PBMCs", "setting": "[1]", "result": "0.1 to 0.3", "unit": "µM"}, {"measurement": "accumulation in intracranial tumors versus normal brain", "setting": "[2]", "result": "preferentially accumulate in intracranial tumors versus normal brain"}, {"measurement": "% PARP inhibition", "setting": "[3]; individual animals, PBMCs, 2 h post versus pre-treatment, single oral 5 mg/kg", "result": "52% and 71% and 78%"}, {"measurement": "reduction of PARP activity in PBMCs compared with pre-treatment levels", "setting": "[3]; mean ± SD of three animals, 2 h after a single dose", "result": "67 ± 13", "unit": "%"}, {"measurement": "PARP inhibition in NHP PBMCs", "setting": "[3]; range across animals, 2 h after single oral dose 5 mg/kg", "result": "52–78%"}, {"measurement": "PARP inhibition in PBMCs and biopsied tumors", "setting": "[4]", "result": "> 90", "unit": "%"}, {"measurement": "V1/F model-estimated apparent volume of distribution", "setting": "[6]", "result": "40.0 L/kg and 24.2 L/kg"}, {"measurement": "t1/2P model-estimated plasma half-life", "setting": "[6]", "result": "3.9 h and 4.3 h"}, {"measurement": "K12 rate constant for transfer from plasma to CSF", "setting": "[7]", "result": "7e-06 h⁻¹ and 4.7e-06 h⁻¹ and 1.65e-05 h⁻¹"}, {"measurement": "K21 rate constant for transfer from CSF to plasma", "setting": "[7]", "result": "0.805 h⁻¹ and 0.420 h⁻¹ and 0.913 h⁻¹"}, {"measurement": "Ka absorption rate constant", "setting": "[7]", "result": "12.5 h⁻¹ and 53.5 h⁻¹ and 44.2 h⁻¹"}, {"measurement": "Ke plasma elimination rate constant", "setting": "[7]", "result": "0.18 h⁻¹ and 0.16 h⁻¹"}, {"measurement": "τ time-delay for absorption of oral drug", "setting": "[7]", "result": "0.76 h and 0.78 h and 2.75 h"}, {"measurement": "Vd/F", "setting": "male, rhesus monkey, plasma, po, 5 mg/kg, V1/F model-estimated apparent volume of distribution, individual animals, single 5 mg/kg dose", "result": 41.5, "unit": "L/kg"}, {"measurement": "K12 rate constant for transfer from plasma to CSF", "setting": "[8]", "result": "9.4e-06", "unit": "h⁻¹"}, {"measurement": "K21 rate constant for transfer from CSF to plasma", "setting": "[8]", "result": 0.71, "unit": "h⁻¹"}, {"measurement": "Ka absorption rate constant", "setting": "[8]", "result": 36.7, "unit": "h⁻¹"}, {"measurement": "τ time-delay for absorption of oral drug", "setting": "[8]", "result": 1.43, "unit": "h"}, {"measurement": "time delay for absorption", "setting": "range across animals, oral 5 mg/kg", "result": "46 to 165", "unit": "min"}, {"measurement": "potentiation of radiation", "setting": "[5]", "result": "potentiates radiation"}]}
